Measurements from PubChem BioAssay AID1919006 (Molecular Pharmacology Branch, DTP, NCI, 2023).

Test system: 885512-296-R-J2-PDC complex spheroid growth, % test/control
Experiment: Anticancer human tumor 885512-296-R-J2-PDC patient-derived breast carcinoma cell line growth inhibition [AhR]
Conditions: for IC50: curve of first compound; for viability, T/C: stronger effect = lower value
Procedure, shortened: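 Complex tumor spheroids co-cultured with HUVEC and human MSC stroma; AhR antagonists tested in combination with standard-of-care and investigational agents. Top concentration at or near clinical Cmax (else 10 microM), half-log dilutions; growth expressed as percent test/control.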

[1] = second compound 0.1 µM, first compound 0.00316 µM
[2] = second compound 0.1 µM, first compound 0.01 µM
[3] = second compound 0.1 µM, first compound 0.0316 µM
[4] = second compound 0.1 µM, first compound 0.1 µM
[5] = second compound 0.316 µM, first compound 0.00316 µM
[6] = second compound 0.316 µM, first compound 0.01 µM
[7] = second compound 0.316 µM, first compound 0.0316 µM
[8] = second compound 0.316 µM, first compound 0.1 µM
[9] = second compound 1 µM, first compound 0.00316 µM
[10] = second compound 1 µM, first compound 0.01 µM
[11] = second compound 1 µM, first compound 0.0316 µM
[12] = second compound 1 µM, first compound 0.1 µM
[13] = second compound 3.16 µM, first compound 0.00316 µM
[14] = second compound 3.16 µM, first compound 0.01 µM
[15] = second compound 3.16 µM, first compound 0.0316 µM
[16] = second compound 3.16 µM, first compound 0.1 µM
[17] = second compound 10 µM, first compound 0.00316 µM
[18] = second compound 10 µM, first compound 0.01 µM
[19] = second compound 10 µM, first compound 0.0316 µM
[20] = second compound 10 µM, first compound 0.1 µM
[21] = second compound 0.1 µM, first compound 0.316 µM
[22] = second compound 0.1 µM, first compound 1 µM
[23] = second compound 0.1 µM, first compound 3.16 µM
[24] = second compound 0.1 µM, first compound 10 µM
[25] = second compound 0.316 µM, first compound 0.316 µM
[26] = second compound 0.316 µM, first compound 1 µM
[27] = second compound 0.316 µM, first compound 3.16 µM
[28] = second compound 0.316 µM, first compound 10 µM
[29] = second compound 1 µM, first compound 0.316 µM
[30] = second compound 1 µM, first compound 1 µM
[31] = second compound 1 µM, first compound 3.16 µM
[32] = second compound 1 µM, first compound 10 µM
[33] = second compound 3.16 µM, first compound 0.316 µM
[34] = second compound 3.16 µM, first compound 1 µM
[35] = second compound 3.16 µM, first compound 3.16 µM
[36] = second compound 3.16 µM, first compound 10 µM
[37] = second compound 10 µM, first compound 0.316 µM
[38] = second compound 10 µM, first compound 1 µM
[39] = second compound 10 µM, first compound 3.16 µM
[40] = second compound 10 µM, first compound 10 µM
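Further: spheroids exposed to compounds for seven days.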

Compound	IC50 (second compound 0.1 µM) [nM]	IC50 (second compound 0.316 µM) [nM]	IC50 (second compound 1 µM) [nM]	IC50 (second compound 3.16 µM) [nM]	IC50 (second compound 10 µM) [nM]	viability, T/C [3] [%]	viability, T/C [4] [%]	viability, T/C [7] [%]	viability, T/C [8] [%]	viability, T/C [11] [%]	viability, T/C [12] [%]	viability, T/C [15] [%]	viability, T/C [16] [%]	viability, T/C [19] [%]	viability, T/C [20] [%]	viability, T/C [21] [%]	viability, T/C [22] [%]	viability, T/C [25] [%]	viability, T/C [26] [%]	viability, T/C [29] [%]	further results
CC[C@@]1(O)C(=O)OCc2c1cc1n(c2=O)Cc2cc3c(CN(C)C)c(O)ccc3nc2-1 + Cc1cncc(-c2nc(NCCc3c[nH]c4ccccc34)c3ncn(C(C)C)c3n2)c1	5.46	5.72	4.47	2.15	< 0.316	9.48	6.96	9.89	4.62	6.8	6.23	12.9	7.38	11.5	4.72	–	–	–	–	–	viability, T/C (second compound 0.1 µM, first compound 0.000316 µM): 87.8%; viability, T/C (second compound 0.1 µM, first compound 0.001 µM): 96.1%; viability, T/C [1]: 67.6%; viability, T/C [2]: 29.2%; viability, T/C (second compound 0.316 µM, first compound 0.000316 µM): 102%; viability, T/C (second compound 0.316 µM, first compound 0.001 µM): 88.1%; viability, T/C [5]: 71.9%; viability, T/C [6]: 30.6%; viability, T/C (second compound 1 µM, first compound 0.000316 µM): 90.4%; viability, T/C (second compound 1 µM, first compound 0.001 µM): 82.2%; viability, T/C [9]: 62%; viability, T/C [10]: 23.6%; viability, T/C (second compound 3.16 µM, first compound 0.000316 µM): 62.9%; viability, T/C (second compound 3.16 µM, first compound 0.001 µM): 60.1%; viability, T/C [13]: 44.5%; viability, T/C [14]: 27.3%; viability, T/C (second compound 10 µM, first compound 0.000316 µM): 21.8%; viability, T/C (second compound 10 µM, first compound 0.001 µM): 21.9%; viability, T/C [17]: 20.9%; viability, T/C [18]: 13.7%
COc1cc(C2c3cc4c(cc3C(OC3OC5COC(C)OC5C(O)C3O)C3COC(=O)C23)OCO4)cc(OC)c1O (stereo not given) + Cc1cncc(-c2nc(NCCc3c[nH]c4ccccc34)c3ncn(C(C)C)c3n2)c1	551	601	395	170	< 31.6	104	92.2	104	101	90.2	78	64.9	55.4	18.5	17.6	75	23.7	72.8	32.1	59.3	viability, T/C [23]: 10.6%; viability, T/C [24]: 8.99%; viability, T/C [27]: 10.5%; viability, T/C [28]: 8.12%; viability, T/C [30]: 17.5%; viability, T/C [31]: 11.2%; viability, T/C [32]: 8.42%; viability, T/C [33]: 42%; viability, T/C [34]: 15.6%; viability, T/C [35]: 10.7%; viability, T/C [36]: 9.12%; viability, T/C [37]: 14.2%; viability, T/C [38]: 14.1%; viability, T/C [39]: 10.2%; viability, T/C [40]: 6.83%
Nc1ccn(C2OC(CO)C(O)C2(F)F)c(=O)n1 (stereo not given) + Cc1cncc(-c2nc(NCCc3c[nH]c4ccccc34)c3ncn(C(C)C)c3n2)c1	< 31.6	< 31.6	< 31.6	< 31.6	< 31.6	3.33	4.05	3.3	3.9	3.48	3.69	5.82	4.2	8.48	8.12	4.69	4.03	3.76	4.54	3.49	viability, T/C [23]: 3.99%; viability, T/C [24]: 4.46%; viability, T/C [27]: 4.43%; viability, T/C [28]: 3.99%; viability, T/C [30]: 4.33%; viability, T/C [31]: 3.22%; viability, T/C [32]: 3.99%; viability, T/C [33]: 4.2%; viability, T/C [34]: 4.17%; viability, T/C [35]: 4.29%; viability, T/C [36]: 3.8%; viability, T/C [37]: 3.15%; viability, T/C [38]: 2.99%; viability, T/C [39]: 2.64%; viability, T/C [40]: 2.75%
Nc1ncn(C2CC(O)C(CO)O2)c(=O)n1 (stereo not given) + Cc1cncc(-c2nc(NCCc3c[nH]c4ccccc34)c3ncn(C(C)C)c3n2)c1	863	871	> 1000	354	< 3.16	101	93.6	88.9	93.7	80.7	90.4	57.2	58.3	20.7	11.7	74.4	46.4	77.7	45.9	76	viability, T/C [1]: 93.5%; viability, T/C [2]: 104%; viability, T/C [5]: 101%; viability, T/C [6]: 113%; viability, T/C [9]: 91.5%; viability, T/C [10]: 86%; viability, T/C [30]: 58.5%; viability, T/C [13]: 67.8%; viability, T/C [14]: 68.5%; viability, T/C [33]: 46%; viability, T/C [34]: 48.1%; viability, T/C [17]: 18.5%; viability, T/C [18]: 20.6%; viability, T/C [37]: 14.9%; viability, T/C [38]: 12.7%
